From article PMC11995724, “Antibiotic target discovery by integrated phenotypic and activity-based profiling of electrophilic fragments” (Cell chemical biology, 2025)

Assay: in vitro
Settings: human, hek293t cells

## C=CC(=O)NCCn1cnc2ccsc2c1=O [2-N15, N-(2-{4-oxo-3H,4H-thieno[3,2-d]pyrimidin-3-yl}ethyl)prop-2-enamide]
  viability at 48 h, 25 µM: 66%

## C=CC(=O)N1CCC(C(=O)N2CCCC(c3cnn(C)c3)C2)CC1 (stereo not shown) [2-N16, 1-{4-[3-(1-methyl-1H-pyrazol-4-yl)piperidine-1-carbonyl]piperidin-1-yl}prop-2-en-1-one]
  viability at 48 h, 25 µM: 99.6%

## C=CC(=O)N(C)Cc1noc(C2CC2)n1 [2-N17, N-[(5-cyclopropyl-1,2,4-oxadiazol-3-yl)methyl]-N-methylprop-2-enamide]
  viability at 48 h, 25 µM: 60.3%

## C=CC(=O)Nc1ccc(C(=O)N2CCCCC2CS(C)(=O)=O)cc1 (stereo not shown) [2-N18, N-{4-[2-(methanesulfonylmethyl)piperidine-1-carbonyl]phenyl}prop-2-enamide]
  viability at 48 h, 25 µM: 102%

## C=CC(=O)NCc1ncccc1-n1cccn1 [2-N19, N-{[3-(1H-pyrazol-1-yl)pyridin-2-yl]methyl}prop-2-enamide]
  viability at 48 h, 25 µM: 70.3%

## C=CC(=O)N1CCC(C(=O)N2CCCCCC2c2ccco2)CC1 (stereo not shown) [2-N20, 1-{4-[2-(furan-2-yl)azepane-1-carbonyl]piperidin-1-yl}prop-2-en-1-one]
  viability at 48 h, 25 µM: 80.3%

## C=CC(=O)N1CSCC1C(=O)N1CCOCC1 (stereo not shown) [2-N21, 1-[4-(morpholine-4-carbonyl)-1,3-thiazolidin-3-yl]prop-2-en-1-one]
  viability at 48 h, 25 µM: 74.9%

## C=CC(=O)N(C)CC(=O)N1CCC2(CC1)CC2c1nnc(C(C)C)o1 (stereo not shown) [2-N22, N-methyl-N-(2-oxo-2-{1-[5-(propan-2-yl)-1,3,4-oxadiazol-2-yl]-6-azaspiro[2.5]octan-6-yl}ethyl)prop-2-enamide]
  viability at 48 h, 25 µM: 84.6%

## C=CC(=O)NCCc1ccccc1OC [2-O03, N-[2-(2-methoxyphenyl)ethyl]prop-2-enamide]
  viability at 48 h, 25 µM: 105%

## C=CC(=O)N1CCC(c2nc(C3CCC3)no2)CC1 [2-O04, 1-[4-(3-cyclobutyl-1,2,4-oxadiazol-5-yl)piperidin-1-yl]prop-2-en-1-one]
  viability at 48 h, 25 µM: 84.1%

## C=CC(=O)N(Cc1ccc2cnn(C)c2c1)CC(C)(C)C [2-O05, N-(2,2-dimethylpropyl)-N-[(1-methyl-1H-indazol-6-yl)methyl]prop-2-enamide]
  viability at 48 h, 25 µM: 102%

## C=CC(=O)NCCNC(=O)C1CC12CCSCC2 (stereo not shown) [2-O06, N-[2-({6-thiaspiro[2.5]octan-1-yl}formamido)ethyl]prop-2-enamide]
  viability at 48 h, 25 µM: 88.3%

## C=CC(=O)Nc1ccnn1C(C)C [2-O07, N-[1-(propan-2-yl)-1H-pyrazol-5-yl]prop-2-enamide]
  viability at 48 h, 25 µM: 101%

## C=CC(=O)NCCC(=O)NC1CCCCC12OCCO2 (stereo not shown) [2-O08, N-[2-({1,4-dioxaspiro[4.5]decan-6-yl}carbamoyl)ethyl]prop-2-enamide]
  viability at 48 h, 25 µM: 106%

## C=CC(=O)N(CC)Cc1cn(C)nn1 [2-O09, N-ethyl-N-[(1-methyl-1H-1,2,3-triazol-4-yl)methyl]prop-2-enamide]
  viability at 48 h, 25 µM: 105%

## C=CC(=O)N1CCC(Cc2ccccc2)CC1 [2-O10, 1-(4-benzylpiperidin-1-yl)prop-2-en-1-one]
  viability at 48 h, 25 µM: 73%

## C=CC(=O)NCc1ccccc1CN1C(=O)NC2(CCCCC2)C1=O [2-O11, N-{[2-({2,4-dioxo-1,3-diazaspiro[4.5]decan-3-yl}methyl)phenyl]methyl}prop-2-enamide]
  viability at 48 h, 25 µM: 71%

## C=CC(=O)Nc1cccc(C(F)(F)CF)c1 [2-O12, N-[3-(1,1,2-trifluoroethyl)phenyl]prop-2-enamide]
  viability at 48 h, 25 µM: 98.8%

## C=CC(=O)NCC1CCC2(CCCOC2)O1 (stereo not shown) [2-O13, N-({1,7-dioxaspiro[4.5]decan-2-yl}methyl)prop-2-enamide]
  viability at 48 h, 25 µM: 168%

## C=CC(=O)Nc1cnc(S(C)(=O)=O)c(C)c1 [2-O14, N-(6-methanesulfonyl-5-methylpyridin-3-yl)prop-2-enamide]
  viability at 48 h, 25 µM: 99.6%

## C=CC(=O)N(C)Cc1conc1CC [2-O15, N-[(3-ethyl-1,2-oxazol-4-yl)methyl]-N-methylprop-2-enamide]
  viability at 48 h, 25 µM: 187%

## C=CC(=O)N1CCOCC1c1cc(F)cc(F)c1 (stereo not shown) [2-O16, 1-[3-(3,5-difluorophenyl)morpholin-4-yl]prop-2-en-1-one]
  viability at 48 h, 25 µM: 81.8%

## C=CC(=O)NCCc1ccnn1C [2-O17, N-[2-(1-methyl-1H-pyrazol-5-yl)ethyl]prop-2-enamide]
  viability at 48 h, 25 µM: 178%

## C=CC(=O)N(C)c1ccccc1C(=O)NC [2-O18, N-methyl-2-(N-methylprop-2-enamido)benzamide]
  viability at 48 h, 25 µM: 114%

## C=CC(=O)N1CCC(CC(C)(C)C)C1 (stereo not shown) [2-O19, 1-[3-(2,2-dimethylpropyl)pyrrolidin-1-yl]prop-2-en-1-one]
  viability at 48 h, 25 µM: 147%

## C=CC(=O)NCC1(c2ccccc2)CC1(F)F (stereo not shown) [2-O20, N-[(2,2-difluoro-1-phenylcyclopropyl)methyl]prop-2-enamide]
  viability at 48 h, 25 µM: 113%

## C=CC(=O)Nc1ccc(C(=O)N2C[C@H](O)C[C@H]2C(=O)OC)cc1 [2-O21, methyl (2S,4R)-4-hydroxy-1-[4-(prop-2-enamido)benzoyl]pyrrolidine-2-carboxylate]
  viability at 48 h, 25 µM: 145%

## C=CC(=O)NC1CC(=O)N(CC)C1 (stereo not shown) [2-O22, N-(1-ethyl-5-oxopyrrolidin-3-yl)prop-2-enamide]
  viability at 48 h, 25 µM: 91.7%

## C=CC(=O)NCCc1ccn(-c2ccc(F)cc2)n1 [2-P03, N-{2-[1-(4-fluorophenyl)-1H-pyrazol-3-yl]ethyl}prop-2-enamide]
  viability at 48 h, 25 µM: 70.4%

## C=CC(=O)N1CCC(C(=O)N(C)C(C)c2sc(CC)nc2C)CC1 (stereo not shown) [2-P04, N-[1-(2-ethyl-4-methyl-1,3-thiazol-5-yl)ethyl]-N-methyl-1-(prop-2-enoyl)piperidine-4-carboxamide]
  viability at 48 h, 25 µM: 95.1%

## C=CC(=O)NC(C)C1(S(C)(=O)=O)CC1 (stereo not shown) [2-P05, N-[1-(1-methanesulfonylcyclopropyl)ethyl]prop-2-enamide]
  viability at 48 h, 25 µM: 84.3%

## C=CC(=O)N1CCC(C(=O)N2CCCC(O)C2)(c2ccccc2)CC1 (stereo not shown) [2-P06, 1-[4-(3-hydroxypiperidine-1-carbonyl)-4-phenylpiperidin-1-yl]prop-2-en-1-one]
  viability at 48 h, 25 µM: 93.3%

## C=CC(=O)NCCN1C(=O)COc2ccccc21 [2-P07, N-[2-(3-oxo-3,4-dihydro-2H-1,4-benzoxazin-4-yl)ethyl]prop-2-enamide]
  viability at 48 h, 25 µM: 60.4%

## C=CC(=O)NCc1ccc(C(=O)N2CCC(c3nc(C)no3)C2)cc1 (stereo not shown) [2-P08, N-({4-[3-(3-methyl-1,2,4-oxadiazol-5-yl)pyrrolidine-1-carbonyl]phenyl}methyl)prop-2-enamide]
  viability at 48 h, 25 µM: 52.5%

## C=CC(=O)NCC1OCCc2sc(F)cc21 (stereo not shown) [2-P09, N-({2-fluoro-4H,6H,7H-thieno[3,2-c]pyran-4-yl}methyl)prop-2-enamide]
  viability at 48 h, 25 µM: 72.3%

## C=CC(=O)N1CCC(C(=O)N2CCCCC(SCC)C2)CC1 (stereo not shown) [2-P10, 1-{4-[3-(ethylsulfanyl)azepane-1-carbonyl]piperidin-1-yl}prop-2-en-1-one]
  viability at 48 h, 25 µM: 108%

## C=CC(=O)NCCCn1cnc2ccccc21 [2-P11, N-[3-(1H-1,3-benzodiazol-1-yl)propyl]prop-2-enamide]
  viability at 48 h, 25 µM: 62%

## C=CC(=O)N1CCC(C(=O)N(C)C2CCCc3c2cnn3C)CC1 (stereo not shown) [2-P12, N-methyl-N-(1-methyl-4,5,6,7-tetrahydro-1H-indazol-4-yl)-1-(prop-2-enoyl)piperidine-4-carboxamide]
  viability at 48 h, 25 µM: 78.2%

## C=CC(=O)NCc1nc(C2CC2)oc1C [2-P13, N-[(2-cyclopropyl-5-methyl-1,3-oxazol-4-yl)methyl]prop-2-enamide]
  viability at 48 h, 25 µM: 52.6%

## C=CC(=O)N1CCC(C(=O)NCC(O)c2c(F)cccc2F)CC1 (stereo not shown) [2-P14, N-[2-(2,6-difluorophenyl)-2-hydroxyethyl]-1-(prop-2-enoyl)piperidine-4-carboxamide]
  viability at 48 h, 25 µM: 102%

## C=CC(=O)NCC1(c2ccnn2C)CC1 [2-P15, N-{[1-(1-methyl-1H-pyrazol-5-yl)cyclopropyl]methyl}prop-2-enamide]
  viability at 48 h, 25 µM: 78.8%

## C=CC(=O)NCCC(=O)N1CCCN(c2cccnn2)CC1 [2-P16, N-{3-oxo-3-[4-(pyridazin-3-yl)-1,4-diazepan-1-yl]propyl}prop-2-enamide]
  viability at 48 h, 25 µM: 77.8%

## C=CC(=O)NC(C)(C)c1ccc(S(N)(=O)=O)cc1F [2-P17, N-[2-(2-fluoro-4-sulfamoylphenyl)propan-2-yl]prop-2-enamide]
  viability at 48 h, 25 µM: 58.6%

## C=CC(=O)Nc1cc(NC(=O)[C@@H]2CSCN2C(=O)CC)ccc1F [2-P18, (4R)-N-[4-fluoro-3-(prop-2-enamido)phenyl]-3-propanoyl-1,3-thiazolidine-4-carboxamide]
  viability at 48 h, 25 µM: 91.2%

## C=CC(=O)NCc1ccc(S(=O)(=O)NC2CC2)cc1 [2-P19, N-{[4-(cyclopropylsulfamoyl)phenyl]methyl}prop-2-enamide]
  viability at 48 h, 25 µM: 62.3%

## C=CC(=O)N1CCC(C(=O)NC2CCc3ncnn3C2)CC1 (stereo not shown) [2-P20, 1-(prop-2-enoyl)-N-{5H,6H,7H,8H-[1,2,4]triazolo[1,5-a]pyridin-6-yl}piperidine-4-carboxamide]
  viability at 48 h, 25 µM: 98%

## C=CC(=O)NCc1ncc(C)o1 [2-P21, N-[(5-methyl-1,3-oxazol-2-yl)methyl]prop-2-enamide]
  viability at 48 h, 25 µM: 48.8%

## C=CC(=O)N(C)CC(=O)NC1CCCN(c2ccc(F)cc2F)C1=O (stereo not shown) [2-P22, N-({[1-(2,4-difluorophenyl)-2-oxopiperidin-3-yl]carbamoyl}methyl)-N-methylprop-2-enamide]
  viability at 48 h, 25 µM: 24.4%

## C=CC(=O)NCC(C)(C)c1coc(-c2ccccc2)n1 [3-A03, N-[2-methyl-2-(2-phenyl-1,3-oxazol-4-yl)propyl]prop-2-enamide]
  viability at 48 h, 25 µM: 45.6%

## C=CC(=O)N(C)CC(=O)N1CCn2cc(C(F)(F)F)nc2C1 [3-A04, N-methyl-N-{2-oxo-2-[2-(trifluoromethyl)-5H,6H,7H,8H-imidazo[1,2-a]pyrazin-7-yl]ethyl}prop-2-enamide]
  viability at 48 h, 25 µM: 60.6%

## C=CC(=O)NCC1CN(Cc2cccc(C)c2)CCO1 (stereo not shown) [3-A05, N-({4-[(3-methylphenyl)methyl]morpholin-2-yl}methyl)prop-2-enamide]
  viability at 48 h, 25 µM: 41%

## C=CC(=O)N(C)CC(=O)NC1CCC(N2CCCCC2=O)CC1 (stereo not shown) [3-A06, N-methyl-N-({[4-(2-oxopiperidin-1-yl)cyclohexyl]carbamoyl}methyl)prop-2-enamide]
  viability at 48 h, 25 µM: 62.1%
